How the values were obtained:
[1] = tested on: human normal hair papilla cells HFDPC-C; assay: Cell growth test on hair papilla cells (neutral red method, living cell number vs purified water control); format: cell-based; details: for Hair papilla cell growth promoting action (in words): conclusion from Tables 1, 2 and 4; for Growth rate control = 100: 72 hours culture
Experimental: First, human normal hair papilla cells HFDPC-C (manufactured by Takara Bio Inc.) were obtained, and the hair papilla cells were then seeded at 0.2×10^4/dish in each well of a 96-well plate for cell culture (manufactured by Corning Inc.). Further, 200 μL of a basal medium (trade name: “Follicle Dermal Papilla Cell Basal Medium”, manufactured by Takara Bio Inc.) containing a growth factor accompanying the obtained hair papilla cells was supplied to each well, and the hair papilla cells were precultured in each well at 37° C. for 24 hours.
Next, the hair papilla cells were confirmed to be subconfluent, and the basal medium in each well was then replaced by 200 μL of another basal medium (trade name: “Follicle Dermal Papilla Cell Basal Medium”, manufactured by Takara Bio Inc.) free of the growth factor described above. In this way, hair papilla cells to be used for determining whether or not addition of the above-described samples promote cell growth were prepared.
To the hair papilla cells prepared as described above, amino acids, combinations of amino acids, peptides and collagen peptide mixtures which are the samples described above were added at final concentrations shown in Tables 1 and 2, and the hair papilla cells were cultured in each well at 37° C. for 72 hours. Here, to one of the wells containing the hair papilla cells prepared as described above, 20 μL, of purified water was added, and as with other hair papilla cells, culturing was performed at 37° C. for 72 hours to prepare a control test sample (control). Thereafter, for each of the hair papilla cells in the wells containing purified water or the samples, the number of living cells (living cell number) was counted by a neutral red method. Here, the “neutral red method” is a method in which neutral red is added at a final concentration of 150 μg/mL into a well where cells are cultured, the cells are cultured for 20 minutes, and washed with PBS (phosphate buffer physiological saline), 200 μL of a 50 mass % ethanol solution containing 1 mass % acetic acid is added into the well as an extraction liquid, the mixture is stirred, and the absorbance of the well containing the neutral red is measured at a wavelength of 540 nm to measure the number of living cells in the well.
The number of living cells of hair papilla cells in the well containing the sample with respect to the number of living cells of hair pallia cells in the well containing purified water (control test sample) was determined as a cell growth rate (%) to evaluate the hair papilla cell growth promoting action in the sample. Further, the cell growth rate (%) was subjected to statistical processing to evaluate significance of the hair papilla cell growth promoting action in the sample. […] Thereafter, the Student's t-test (t-test) was conducted to evaluate significance. […] In Tables 1 and 2, samples with “++” were determined to have a significance in the hair papilla cell growth promoting action. In samples with “+”, the cell growth rate (%) exceeded 100.

hairless mice = assay: Test for confirming hair development effect and hair growth effect using hairless mouse (visual amount of head hair); format: in vivo
Description: Thirty 8-week-old male and female hairless mice were provided by purchase from Hoshino Laboratory Animals, Inc. The hairless mice were divided into five groups each consisting of six mice with no regard to sex. Specifically, the plurality of groups consist of a normal group given a normal feed (trade name: “Labo MR Stock”, manufactured by Nosan Corporation), a control group given magnesium-deficient specialty feed (trade name: “HR-AD Feed”, manufactured by Nosan Corporation), a first group given a mixed feed obtained by adding Pro-Hyp at a content of 0.3 mass % to the magnesium-deficient specialty feed, a second group given a mixed feed obtained by adding the collagen peptide mixture A at a content of 5 mass % to the magnesium-deficient specialty feed, and a third group given a mixed feed obtained by adding a collagen peptide mixture C of the later-described composition at a content of 2.5 mass % to the magnesium-deficient specialty feed.
The heads of the hairless mice in the above-described groups were observed immediately after they were reared for 3 weeks to 11 weeks of age under the following conditions: the temperature was 23±2° C., the relative humidity was 55±10%, the lighting cycle was 12 hours, the light period started at 7:00 and ended at 19:00, and the mice were allowed to freely eat. […] At the time of obtaining the hairless mice, their heads had no hair.
Further, a 2-week-old hairless mouse before starting to lose its hair was obtained from Hoshino Laboratory Animals, Inc., and relative to the amount of head hair of the hairless mouse which is defined as 10, the amount of head hair of each of the 11-week-old hairless mice in each group was visually measured. […] Each of the values in the table represents an average of the amounts of head hair of the six hairless mice in each group.

[2] = final concentration 0.05 mM, Table 1
[3] = final concentration 0.5 mM, Table 1
[4] = final concentration 5 mM, Table 1
[5] = final concentration 0.05 mM, Table 4 (control test)
[6] = final concentration 0.5 mM, Table 4 (control test)
[7] = final concentration 5 mM, Table 4 (control test)

Molecule: NCC(=O)O.O=C(O)[C@@H]1CCCN1 [PG, proline-glycine]
- Hair papilla cell growth promoting action (in words) [1]: had a hair papilla cell growth promoting action
- Growth rate control = 100 ([1]; final concentration 0.05 mM): 120 ± 5%
- Assessment [1, 2]: ++
- Growth rate control = 100 ([1]; final concentration 0.5 mM): 120 ± 1%
- Assessment [1, 3]: ++
- Growth rate control = 100 ([1]; final concentration 5 mM): 120 ± 5%
- Assessment [1, 4]: ++

Molecule: leucine-hydroxyproline [LO]
- Hair papilla cell growth promoting action (in words) [1]: had a hair papilla cell growth promoting action
- Growth rate control = 100 ([1]; final concentration 0.05 mM): 104 ± 6%
- Assessment [1, 2]: + (In samples with “+”, the cell growth rate (%) exceeded 100)
- Growth rate control = 100 ([1]; final concentration 0.5 mM): 105 ± 2%
- Assessment [1, 3]: + (In samples with “+”, the cell growth rate (%) exceeded 100)
- Growth rate control = 100 ([1]; final concentration 5 mM): 104 ± 5%
- Assessment [1, 4]: + (In samples with “+”, the cell growth rate (%) exceeded 100)

Molecule: NC(=O)CC[C@H](N)C(=O)O [Gln, glutamine, reference compound]
- Hair papilla cell growth promoting action (in words) [1]: poor hair papilla cell growth promoting action
- Growth rate control = 100 ([1]; final concentration 0.05 mM): 92 ± 2%
- Assessment [1, 5]: −
- Growth rate control = 100 ([1]; final concentration 0.5 mM): 94 ± 5%
- Assessment [1, 6]: −
- Growth rate control = 100 ([1]; final concentration 5 mM): 100 ± 4%
- Assessment [1, 7]: −

Molecule: O=C(O)[C@@H]1CCCN1 [Pro, proline, reference compound]
- Hair papilla cell growth promoting action (in words) [1]: poor hair papilla cell growth promoting action
- Growth rate control = 100 ([1]; final concentration 0.05 mM): 91 ± 4%
- Assessment [1, 5]: −
- Growth rate control = 100 ([1]; final concentration 0.5 mM): 93 ± 5%
- Assessment [1, 6]: −
- Growth rate control = 100 ([1]; final concentration 5 mM): 96 ± 1%
- Assessment [1, 7]: −

Molecule: proline-alanine [PA]
- Hair papilla cell growth promoting action (in words) [1]: had a hair papilla cell growth promoting action
- Growth rate control = 100 ([1]; final concentration 0.05 mM): 105 ± 2%
- Assessment [1, 2]: + (In samples with “+”, the cell growth rate (%) exceeded 100)
- Growth rate control = 100 ([1]; final concentration 0.5 mM): 111 ± 1%
- Assessment [1, 3]: + (In samples with “+”, the cell growth rate (%) exceeded 100)
- Growth rate control = 100 ([1]; final concentration 5 mM): 107 ± 5%
- Assessment [1, 4]: + (In samples with “+”, the cell growth rate (%) exceeded 100)

Molecule: O=C(O)[C@@H]1C[C@@H](O)CN1 [O, hydroxyproline]
- Hair papilla cell growth promoting action (in words) [1]: had a hair papilla cell growth promoting action
- Growth rate control = 100 ([1]; final concentration 0.05 mM): 114 ± 1%
- Assessment [1, 2]: ++
- Growth rate control = 100 ([1]; final concentration 0.5 mM): 114 ± 3%
- Assessment [1, 3]: ++
- Growth rate control = 100 ([1]; final concentration 5 mM): 110 ± 5%
- Assessment [1, 4]: ++

Molecule: glycine-proline-hydroxyproline [GPO]
- Hair papilla cell growth promoting action (in words) [1]: had a hair papilla cell growth promoting action
- Growth rate control = 100 ([1]; final concentration 0.05 mM): 126 ± 3%
- Assessment [1, 2]: ++
- Growth rate control = 100 ([1]; final concentration 0.5 mM): 125 ± 4%
- Assessment [1, 3]: ++
- Growth rate control = 100 ([1]; final concentration 5 mM): 120 ± 4%
- Assessment [1, 4]: ++

Molecule: glutamic acid-hydroxyproline-glycine [EOG]
- Hair papilla cell growth promoting action (in words) [1]: had a hair papilla cell growth promoting action
- Growth rate control = 100 ([1]; final concentration 0.05 mM): 126 ± 10%
- Assessment [1, 2]: ++
- Growth rate control = 100 ([1]; final concentration 0.5 mM): 131 ± 1%
- Assessment [1, 3]: ++
- Growth rate control = 100 ([1]; final concentration 5 mM): 121 ± 8%
- Assessment [1, 4]: ++

Molecule: phenylalanine-hydroxyproline [FO]
- Hair papilla cell growth promoting action (in words) [1]: had a hair papilla cell growth promoting action
- Growth rate control = 100 ([1]; final concentration 0.05 mM): 104 ± 4%
- Assessment [1, 2]: + (In samples with “+”, the cell growth rate (%) exceeded 100)
- Growth rate control = 100 ([1]; final concentration 0.5 mM): 106 ± 2%
- Assessment [1, 3]: + (In samples with “+”, the cell growth rate (%) exceeded 100)
- Growth rate control = 100 ([1]; final concentration 5 mM): 104 ± 1%
- Assessment [1, 4]: ++

Molecule: proline-proline [PP]
- Hair papilla cell growth promoting action (in words) [1]: had a hair papilla cell growth promoting action
- Growth rate control = 100 ([1]; final concentration 0.05 mM): 116 ± 3%
- Assessment [1, 2]: ++
- Growth rate control = 100 ([1]; final concentration 0.5 mM): 113 ± 6%
- Assessment [1, 3]: ++
- Growth rate control = 100 ([1]; final concentration 5 mM): 109 ± 2%
- Assessment [1, 4]: ++

Molecule: NCC(=O)O.O=C(O)[C@@H]1CCCN1 [GP, glycine-proline]
- Hair papilla cell growth promoting action (in words) [1]: had a hair papilla cell growth promoting action
- Growth rate control = 100 ([1]; final concentration 0.05 mM): 105 ± 4%
- Assessment [1, 2]: + (In samples with “+”, the cell growth rate (%) exceeded 100)
- Growth rate control = 100 ([1]; final concentration 0.5 mM): 109 ± 2%
- Assessment [1, 3]: ++
- Growth rate control = 100 ([1]; final concentration 5 mM): 114 ± 2%
- Assessment [1, 4]: ++

Molecule: alanine-hydroxyproline-glycine [AOG]
- Hair papilla cell growth promoting action (in words) [1]: had a hair papilla cell growth promoting action
- Growth rate control = 100 ([1]; final concentration 0.05 mM): 127 ± 5%
- Assessment [1, 2]: ++
- Growth rate control = 100 ([1]; final concentration 0.5 mM): 126 ± 2%
- Assessment [1, 3]: ++
- Growth rate control = 100 ([1]; final concentration 5 mM): 119 ± 2%
- Assessment [1, 4]: ++

Molecule: serine-hydroxyproline-glycine [SOG]
- Hair papilla cell growth promoting action (in words) [1]: had a hair papilla cell growth promoting action
- Growth rate control = 100 ([1]; final concentration 0.05 mM): 113 ± 10%
- Assessment [1, 2]: + (In samples with “+”, the cell growth rate (%) exceeded 100)
- Growth rate control = 100 ([1]; final concentration 0.5 mM): 116 ± 3%
- Assessment [1, 3]: ++
- Growth rate control = 100 ([1]; final concentration 5 mM): 109 ± 2%
- Assessment [1, 4]: + (In samples with “+”, the cell growth rate (%) exceeded 100)

Molecule: N=C(N)NCCC[C@H](N)C(=O)O [Arg, arginine, reference compound]
- Hair papilla cell growth promoting action (in words) [1]: poor hair papilla cell growth promoting action
- Growth rate control = 100 ([1]; final concentration 0.05 mM): 93 ± 6%
- Assessment [1, 5]: −
- Growth rate control = 100 ([1]; final concentration 0.5 mM): 98 ± 3%
- Assessment [1, 6]: −
- Growth rate control = 100 ([1]; final concentration 5 mM): 101 ± 2%
- Assessment [1, 7]: −

Molecule: proline-hydroxyproline [PO]
- Hair papilla cell growth promoting action (in words) [1]: had a hair papilla cell growth promoting action
- Growth rate control = 100 ([1]; final concentration 0.05 mM): 126 ± 8%
- Assessment [1, 2]: ++
- Growth rate control = 100 ([1]; final concentration 0.5 mM): 127 ± 3%
- Assessment [1, 3]: ++
- Growth rate control = 100 ([1]; final concentration 5 mM): 129 ± 6%
- Assessment [1, 4]: ++
- Score (amount of head hair, 2-week-old hairless mouse = 10) (hairless mice; First group: 0.3 mass % in magnesium-deficient specialty feed, 3 weeks, 11-week-old hairless mice, average of six): 8
- Effectiveness as hair growing agent (in words) (hairless mice; conclusion from Table 3): effective as hair growing agents
- Hair development in the hair of head (FIG. 2 vs FIG. 1) (hairless mice; mixed feed with 0.3 mass % Pro-Hyp, 11-week-old hairless mice, compared with control group): hair development occurred in the hair of head

Molecule: glutamic acid-hydroxyproline [EO]
- Hair papilla cell growth promoting action (in words) [1]: had a hair papilla cell growth promoting action
- Growth rate control = 100 ([1]; final concentration 0.05 mM): 102 ± 6%
- Assessment [1, 2]: + (In samples with “+”, the cell growth rate (%) exceeded 100)
- Growth rate control = 100 ([1]; final concentration 0.5 mM): 109 ± 4%
- Assessment [1, 3]: + (In samples with “+”, the cell growth rate (%) exceeded 100)

Molecule: C[C@H](N)C(=O)O [Ala, alanine, reference compound]
- Hair papilla cell growth promoting action (in words) [1]: poor hair papilla cell growth promoting action
- Growth rate control = 100 ([1]; final concentration 0.05 mM): 94 ± 1%
- Assessment [1, 5]: −
- Growth rate control = 100 ([1]; final concentration 0.5 mM): 100 ± 8%
- Assessment [1, 6]: −
- Growth rate control = 100 ([1]; final concentration 5 mM): 95 ± 1%
- Assessment [1, 7]: −

Molecule: proline-alanine-glycine [PAG]
- Hair papilla cell growth promoting action (in words) [1]: had a hair papilla cell growth promoting action
- Growth rate control = 100 ([1]; final concentration 0.05 mM): 110 ± 4%
- Assessment [1, 2]: + (In samples with “+”, the cell growth rate (%) exceeded 100)
- Growth rate control = 100 ([1]; final concentration 0.5 mM): 113 ± 1%
- Assessment [1, 3]: ++
- Growth rate control = 100 ([1]; final concentration 5 mM): 115 ± 4%
- Assessment [1, 4]: ++
